Earlier results as cited in patent EP2736496B1, “PHARMACEUTICAL COMPOSITION CONTAINING AN ANTIMUSCARINIC AGENT AND METHOD FOR THE PREPARATION THEREOF” (Pharmathen S.A., priority 2011, dated 2013).
Converted amounts (≈) assume the structure as drawn.

- water solubility: 12 mg/mL (≈ 36.9 mM)
SMILES: Cc1ccc(O)c([C@H](CCN(C(C)C)C(C)C)c2ccccc2)c1 [Tolterodine, (R)-N, N-diisopropyl-3-(2-hydroxy-5-methylphenyl)-3-phenylpropylamine]
